How the values were obtained:
hyperuricaemic mice = test: Hyperuricaemic (potassium oxonate) mice: serum and urinary uric acid, urinary creatinine; type: in vivo, mouse
Experimental: A total of 45 C57/Black 6 mice in 9 groups (n=5) were studied for a period of one week. The drugs were dissolved or dispersed in distilled water immediately prior to dosing and administered in a volume of 15 mL/kg by gastric gavage. The volume of drug administered was based on the body weight determined on the day of dosing. […] Whole blood and urine samples were collected 1 h after final drug administration on the seventh day. […] The serum and urine were stored at −80° C. until assayed. The uric acid levels in serum and urine were determined by the phosphotungstic acid method.^54 The creatinine levels in serum were determined spectrophotometrically using standard diagnostic kits.

[1] = system: subjects with acute gout flares; test: Open-label, active-controlled clinical trial in acute gout flares; conditions: for proportion of subjects with ≧50% reduction in target joint pain score from baseline at 72 hours post-dose: PI-NRS
Experimental: The primary efficacy endpoint is the proportion of patients who responded to treatment. Treatment responders are defined as a ≧50% reduction in target joint pain score from baseline at 72 hours post-dose without using rescue drug. The target joint pain score is an 11-point Pain Intensity Numeric Rating Scale (PI-NRS) used to assess joint pain intensity while experiencing a gout flare on a scale from 0 (no pain) to 10 (worst possible pain).

Male C57/BL/6 mice = test: Monosodium urate crystal-induced peritoneal inflammation in mice; type: in vivo, mouse; conditions: for decrease of mean neutrophil influx for every increase of 1 μmol/kg of the drug: single drug i.p., MSU crystals 0.5 mg i.p., logarithmic model
Experimental: Colchicine was dissolved in PBS and administered at a dose of 0.05, 0.5 and 5 μmol/kg in a similar fashion. […] The mice were euthanised after 6 hours with CO2 and the peritoneal cells removed by lavage with 10 mL of cold PBS. The lavage fluid was analysed for neutrophil infiltration using a cytospin and Diff-Quick staining. The concentrations of IL-1β and IL-6 in the lavage supernatants was determined using an R&D Systems Quantikine mouse immunoassay.

THP-1 cells = THP-1 cells stimulated with lipopolysaccharide; cited from earlier work
[2] = system: mouse peritoneal macrophages; test: MSU crystal-induced cytokine release from mouse peritoneal macrophages
Experimental: Male C57/BL/6 mice were injected intraperitoneally with 4% thioglycollate solution and the macrophages collected by peritoneal lavage 3 days later.^57 The cells were plated at a density of 7×10^5 cells in 12-well dishes and non-adherent cells were removed after 3 hours. The cells were cultured in RPMI containing 10% FCS, sodium pyruvate, penicillin/streptomycin and L-glutamine. […] The concentration of IL-1β in the supernatant was determined with an R&D systems Quantikine mouse immunoassay.

patients = conditions: febuxostat 80 mg/day; cited from earlier work

For Oc1ncnc2[nH]ncc12 [allopurinol], the “effect on serum urate” value (hyperuricaemic mice; allopurinol 5 mg/kg/day, 7 days, to a level below normal baseline) was “highly significant (p<0.001) drop in serum urate” and the “effect on urinary uric acid” value (hyperuricaemic mice; allopurinol 5 mg/kg/day, level still below normal baseline) was “highly significant (p<0.001) increase in urinary uric acid”.

With CC(C)(S)C(=O)N[C@@H](CS)C(=O)O [bucillamine, N-(2-mercapto-2-methylpropionyl)-L-cysteine] the “proportion of subjects with ≧50% reduction in target joint pain score from baseline at 72 hours post-dose” value ([1]; Arm A, 900 mg, 2/8 subjects) was 25%, the “proportion of subjects with ≧50% reduction in target joint pain score from baseline at 72 hours post-dose” value ([1]; Arm B, 1,800 mg, 6/9 subjects) was 67% and the “use of rescue medication” value ([1]; Arm B, 1,800 mg, all subjects, seven-day treatment period) was “completed the treatment period without the use of rescue medication”. The “release of IL-1β and IL-6 into the peritoneal cavity” value (Male C57/BL/6 mice; after injection of monosodium urate crystals, mouse) was “attenuated”, the “effect of addition of bucillamine on average neutrophil influx” value (Male C57/BL/6 mice; bucillamine 10 μmol/kg added to colchicine, MSU crystals i.p., 6 hours) was “highly significant (p<0.001) decrease in average neutrophil influx” and the “decrease of mean neutrophil influx for every increase of 1 μmol/kg of the drug” value (Male C57/BL/6 mice; 6 hours) was 5.15%. For the same compound, the “release of TNF-α, IL-1β and IL-8” value (THP-1 cells) was “attenuated”, the “decrease in average IL-1β cytokine production with each additional 1 μmol/kg increase” value ([2]; MSU crystals 50 μg/mL, 6 hours) was 30.7 pg/mL and the “decrease in average IL-6 cytokine production with each additional 1 μmol/kg increase” value ([2]; MSU crystals 50 μg/mL, 6 hours) was 13.7 pg/mL. For the same compound, the “decrease in average MSU crystal-induced IL-1β production” value ([2]; addition of bucillamine 10 μmol/kg to colchicine) was 65.0%, the “increase of mean urinary uric acid for each increase of 1 mg/kg/day” value (hyperuricaemic mice; bucillamine alone, 7 days, dose-response slope) was 0.079 mg/dL and the “reduction of mean serum urate for each increase of 1 mg/kg/day” value (hyperuricaemic mice; bucillamine alone, gastric gavage, 7 days, dose-response slope) was 0.0067 mg/dL.

In the case of COc1cc2c(c(OC)c1OC)-c1ccc(OC)c(=O)cc1[C@@H](NC(C)=O)CC2 [colchicine], the “proportion of subjects with ≧50% reduction in target joint pain score from baseline at 72 hours post-dose” value ([1]; Arm C, 1.8 mg, 5/12 subjects) is reported as 42%, the “related serious adverse events” value ([1]; any of the treatment arms, seven-day treatment period) is reported as “No related serious adverse events” and the “decrease of mean neutrophil influx for every increase of 1 μmol/kg of the drug” value (Male C57/BL/6 mice; 6 hours) is reported as 18.3%. For the same compound, the “decrease of average MSU crystal-induced IL-1β production for every increase of 1 μmol/kg” value ([2]; colchicine alone, logarithmic model) was 29.6%.

For Cc1nc(-c2ccc(OCC(C)C)c(C#N)c2)sc1C(=O)O [febuxostat], the “patients who previously failed to normalise uric acid levels (<360 μmol/L) on allopurinol and also failed” value (patients) is given as 59%.
